Where only a bound is given, the exact number is not on record here.

For one series, the system named is EMT-6 leg tumors. As to the kind of experiment: Boron biodistribution in mice with subcutaneous EMT-6 leg tumors (Example 3). Format: in vivo, BALB/c mice. To be noted: for Boron Concentration, Blood / Boron Concentration, Liver / Boron concentration, Cerebrum / Boron concentration, Ears / Boron Concentration, Tumor: 156 μg CuTCPBr/gbw over 2 days; for Boron Concentration, Tumor / Tumor boron concentration normalized to the dose of the first study: leg tumor; for Tumor boron concentration normalized to the dose of the first study: normalized from 156 to 186 μg/g dose. As for the experimental part: In this example, BALB/c mice bearing subcutaneous EMT-6 leg tumors were given 156 μg CuTCPBr/gbw in a volume of 0.01 mL/gbw/injection over a period of 2 days.
There is a larger vascular system surrounding the dorsal thorax compared with the leg, which may be a factor. However, in the case of CuTCPH, the boron concentration was 30% higher in leg tumors compared to back tumors. Normalizing to the slightly higher dose of the first study, the tumor boron concentration should be about 29 and 15 μg/g at 2d and 5d, respectively, which are still low. Studies are underway to repeat these experiments.

The subject of series [1] is EMT-6 mammary tumors. As to the kind of experiment: Boron concentrations in tissues at the time of irradiation (Example 8). Format: in vivo, BALB/c mice. Conditions: ≈400 μg/g body weight CuTCPBr, euthanized the day of irradiation. From the text:
(§1) In this example, female BALB/c mice (Taconic Farms, Germantown, N.Y.) (20-25 g) were used in radiotherapy studies to compare tumor control effects in mice bearing EMT-6 mammary tumors. The EMT-6 leg tumors were formed by mincing freshly removed tumor tissue from mice into fragments no larger than 0.5 mm. The fragments were mixed in a saline solution and implanted subcutaneously (sc) in the legs of mice using an 18-gauge trocar. Tumor fragments were used because in this particular location tumors initiated by cell suspensions tend to spread in a thin subcutaneous layer and invade the subjacent muscle. Using tumor fragments, the tumors are palpable, but thinner on the leg than on the dorsal thorax. In late stage, fragment-initiated tumors can invade muscle tissue but not as frequently as do suspension-initiated tumors.
(§2) At approximately seven days after tumor implantation, the mice were stratified by tumor volume into six (6) matched experimental groups, which included five groups of twelve (12) mice each and a control group of thirty-three (33). Two groups were treated with ≈400 μg/g body weight CuTCPBr and given two doses of 100 kVp x-irradiation x-rays, two groups were treated with only two doses of 100 kVp x-irradiation, one group received CuTCPBr and were euthanized the day of irradiation. The function of the group which was immediately euthanized was to determine the boron concentration in tissues at the time of irradiation. It was not a control group upon which the effectiveness of treatment was compared. The control group of thirty-three mice was not treated at all.
Tumor to blood boron concentration ratios were about 4:1, which is low due to the high blood values. Such a trend was also observed with CuTCPH at high doses of 400 mg/kg.

Series [2] has as its system EMT-6 mammary tumors. As to the kind of experiment: Radiosensitizer study: tumor control with 100 kVp x-irradiation (Example 8). Format: in vivo, BALB/c mice. To be noted: for % tumor control: 89 days observation.
Text: as §1, §2
In all treated groups, single-exposure irradiations were used. For the irradiation procedures, mice were anesthetized with sodium pentobarbital (≈60 μg/gbw i.p.). Each mouse was anesthetized and positioned behind a 1-cm thick lead shield with the tumor-bearing leg extended across a 2-cm aperture in the lead shield in a manner similar to that used in thermal beam irradiation. […]
Tumor volumes ranged from approximately 20-170 mm^3 in each of the five groups of treated mice. Tumor dimensions were measured 2-3 times per week and mice were euthanized either when calculated tumor volumes (x^2y/2, where x is the shorter surface dimension) exceeded 500 mm^3 or when skin ulceration was observed. Mice were weighed when the tumors were measured, except during the first week, when they were weighed daily. […]
Mice were euthanized at various time points due to tumor overgrowth. The effectiveness of the treatments was measured by the “% tumor control.” The % tumor control is defined as the number of mice whose tumors were “cured” divided by the total number of mice in a particular dose group. […]

A short description of series [3]: Toxicity observation during and after porphyrin administration and at necropsy (Examples 2 and 3). Format: in vivo. Conditions: Examples 2 and 3 (186 or 156 μg CuTCPBr/g). From the text: Toxicity is the critical factor, and since no toxicity was observed, the dose can be increased to achieve tumor boron concentrations higher than those in Examples 2 and 3.

In the case of “copper octabromotetracarboranylphenylporphyrin [CuTCPBr]”, in the series on EMT-6 leg tumors (2 days after last injection), the “Boron Concentration, Blood” value came to 0.2 ± 0.1 µg/g; the “Boron Concentration, Liver” value was 271 ± 40 µg/g; the “Boron concentration, Cerebrum” value amounted to 0 ± 0.1 µg/g; the “Boron concentration, Ears” value stood at 1 ± 1 µg/g. For the same substance, the “Boron Concentration, Tumor” value with EMT-6 leg tumors (2 days after last injection) stood at 24 ± 11 µg/g. In addition, in the series with EMT-6 leg tumors (5 days after last injection), the “Boron Concentration, Blood” value came to 0.1 ± 0.1 µg/g; the “Boron Concentration, Liver” value worked out at 308 ± 40 µg/g; the “Boron concentration, Cerebrum” value was determined as 0.6 ± 1 µg/g; the “Boron concentration, Ears” value was determined as 0.6 ± 0.7 µg/g. In addition, the “Boron Concentration, Tumor” value with EMT-6 leg tumors (5 days after last injection) amounted to 13 ± 6 µg/g. Moreover, in the series on EMT-6 leg tumors (2d), the “Tumor boron concentration normalized to the dose of the first study” value is “about 29 μg/g”. Besides, the “Tumor boron concentration normalized to the dose of the first study” value in the series with EMT-6 leg tumors (5d) is approximately 15 µg/g. Also, in the series with EMT-6 mammary tumors [1], the “Boron Concentration, Blood” value was 68 (19) μg/g; the “Boron Concentration, Liver” value is reported as 725 (72) μg/g; the “Boron Concentration, Muscle” value was 12 (3) μg/g; the “Boron Concentration, Skin” value is given as 20 (4.3) μg/g. Moreover, the “Boron Concentration, Tumor” value in the series on EMT-6 mammary tumors [1] (leg tumor) is recorded as 277 (45) μg/g. Besides, the dose modification factor in the series with EMT-6 mammary tumors [2] (CuTCPBr in combination with x-irradiation) is given as more than 1.5. The radiosensitizing effect result in the series with EMT-6 mammary tumors [2] (single dose x-irradiation in the presence of CuTCPBr) was “clear radiosensitizing effect”. Moreover, the “% tumor control” value with EMT-6 mammary tumors [2] (≈400 μg/g CuTCPBr plus single-dose 25 Gy 100 kVp x-rays, x-rays alone 25.0%) was determined as 41.7%. In addition, the “% tumor control” value with EMT-6 mammary tumors [2] (≈400 μg/g CuTCPBr plus single-dose 35 Gy 100 kVp x-rays, x-rays alone 33.3%) is reported as 66.7%. For the same substance, the tissues at necropsy result in series [3] is on record as “all tissues appeared normal”. Also, the “toxic effects, physically or behaviorally” value in series [3] (during and after porphyrin administration) is reported as “no toxic effects were noted”.

(Values after US6759403B2, “Metalloporphyrins and their uses as radiosensitizers for radiation therapy” (Brookhaven Science Associates, LLC, priority 2001, dated 2004).)
